Data: article PMC6199744, “Development of Chemical Proteomics for the Folateome and Analysis of the Kinetoplastid Folateome” (ACS Infectious Diseases, 2018)
Read-outs that look alike come from different tables or passages of the source.

How the values were obtained:
Format in all cases: binding
[1] = target: T1, HeLa cell extract proteins (Homo sapiens, UniProt Q04837)
T1 construct: endogenous in cells; host or cells: HeLa cell extract
T1 sequence (Q04837 17-148): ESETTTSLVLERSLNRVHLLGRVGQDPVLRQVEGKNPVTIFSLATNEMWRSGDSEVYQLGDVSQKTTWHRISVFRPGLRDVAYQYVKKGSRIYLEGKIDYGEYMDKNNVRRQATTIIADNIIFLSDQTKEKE

[2] = target: T2, HeLa cell extract proteins (Homo sapiens, UniProt P47712)
T2 construct: endogenous in cells; host or cells: HeLa cell extract
T2 sequence (P47712 1-749): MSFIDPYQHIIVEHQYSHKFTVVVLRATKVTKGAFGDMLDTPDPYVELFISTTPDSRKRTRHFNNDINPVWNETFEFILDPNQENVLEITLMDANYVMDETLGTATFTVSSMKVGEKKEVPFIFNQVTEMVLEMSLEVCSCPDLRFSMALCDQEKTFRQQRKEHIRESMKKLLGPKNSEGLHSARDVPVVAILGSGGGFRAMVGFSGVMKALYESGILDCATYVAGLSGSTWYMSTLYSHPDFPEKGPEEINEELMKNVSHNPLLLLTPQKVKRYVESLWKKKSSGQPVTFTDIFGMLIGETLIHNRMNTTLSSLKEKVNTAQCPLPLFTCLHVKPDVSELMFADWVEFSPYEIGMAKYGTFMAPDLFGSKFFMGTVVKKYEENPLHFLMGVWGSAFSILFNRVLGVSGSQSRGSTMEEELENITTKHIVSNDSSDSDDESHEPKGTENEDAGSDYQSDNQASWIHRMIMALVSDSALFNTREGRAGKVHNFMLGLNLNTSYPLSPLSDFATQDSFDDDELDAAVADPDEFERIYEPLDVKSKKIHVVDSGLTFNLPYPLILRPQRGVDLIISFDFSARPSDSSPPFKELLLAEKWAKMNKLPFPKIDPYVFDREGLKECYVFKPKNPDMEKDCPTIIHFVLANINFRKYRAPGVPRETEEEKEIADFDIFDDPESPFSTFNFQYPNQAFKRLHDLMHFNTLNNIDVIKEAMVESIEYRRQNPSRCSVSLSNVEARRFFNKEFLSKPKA

[3] = target: T3, HeLa cell extract proteins (Homo sapiens, UniProt P47897)
T3 construct: endogenous in cells; host or cells: HeLa cell extract
T3 sequence (P47897 1-775): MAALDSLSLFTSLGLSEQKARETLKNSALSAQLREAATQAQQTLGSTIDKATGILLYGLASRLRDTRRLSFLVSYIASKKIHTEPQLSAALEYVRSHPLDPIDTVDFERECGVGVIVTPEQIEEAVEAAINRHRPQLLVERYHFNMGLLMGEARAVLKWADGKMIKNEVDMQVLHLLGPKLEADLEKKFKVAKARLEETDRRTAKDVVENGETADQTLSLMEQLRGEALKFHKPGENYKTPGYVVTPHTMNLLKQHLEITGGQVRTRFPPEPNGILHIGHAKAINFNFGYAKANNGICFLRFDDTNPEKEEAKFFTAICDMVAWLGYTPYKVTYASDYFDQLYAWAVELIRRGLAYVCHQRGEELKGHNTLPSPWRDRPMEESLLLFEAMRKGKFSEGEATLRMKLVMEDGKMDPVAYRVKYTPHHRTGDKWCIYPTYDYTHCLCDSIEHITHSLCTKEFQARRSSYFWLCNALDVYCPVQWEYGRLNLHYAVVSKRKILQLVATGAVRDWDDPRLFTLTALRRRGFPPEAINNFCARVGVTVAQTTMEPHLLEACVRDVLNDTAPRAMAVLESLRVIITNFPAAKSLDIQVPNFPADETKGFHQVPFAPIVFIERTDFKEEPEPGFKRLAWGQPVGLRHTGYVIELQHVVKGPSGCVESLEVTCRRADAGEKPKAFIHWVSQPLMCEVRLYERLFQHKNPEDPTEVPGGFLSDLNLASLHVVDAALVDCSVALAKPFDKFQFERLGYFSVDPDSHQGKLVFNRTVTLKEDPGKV

[4] = target: T4, HeLa cell extract proteins (Homo sapiens, UniProt P11413)
T4 construct: endogenous in cells; host or cells: HeLa cell extract

[5] = target: T5, HeLa cell extract proteins (Homo sapiens, UniProt Q6YHU6)
T5 construct: endogenous in cells; host or cells: HeLa cell extract

[6] = target: T6, HeLa cell extract proteins (Homo sapiens, UniProt Q8N5P1)
T6 construct: endogenous in cells; host or cells: HeLa cell extract
T6 sequence (Q8N5P1 1-291): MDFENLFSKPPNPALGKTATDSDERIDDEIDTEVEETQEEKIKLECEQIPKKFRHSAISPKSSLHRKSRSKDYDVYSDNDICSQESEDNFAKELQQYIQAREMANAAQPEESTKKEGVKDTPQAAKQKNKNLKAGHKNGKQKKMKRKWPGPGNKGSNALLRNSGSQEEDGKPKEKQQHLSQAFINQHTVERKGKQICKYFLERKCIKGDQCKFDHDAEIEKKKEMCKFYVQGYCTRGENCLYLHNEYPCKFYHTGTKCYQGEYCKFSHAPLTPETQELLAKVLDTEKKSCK

[7] = target: T7, HeLa cell extract proteins (Homo sapiens, UniProt Q96JN8)
T7 construct: endogenous in cells; host or cells: HeLa cell extract

[8] = target: T8, HeLa cell extract proteins (Homo sapiens, UniProt Q16658)
T8 construct: endogenous in cells; host or cells: HeLa cell extract

[9] = target: T9, HeLa cell extract proteins (Homo sapiens, UniProt P23526)
T9 construct: endogenous in cells; host or cells: HeLa cell extract

[10] = target: T10, HeLa cell extract proteins (Homo sapiens, UniProt P07814)
T10 construct: endogenous in cells; host or cells: HeLa cell extract

[11] = target: T11, HeLa cell extract proteins (Homo sapiens, UniProt O75964)
T11 construct: endogenous in cells; host or cells: HeLa cell extract
T11 sequence (O75964 1-103): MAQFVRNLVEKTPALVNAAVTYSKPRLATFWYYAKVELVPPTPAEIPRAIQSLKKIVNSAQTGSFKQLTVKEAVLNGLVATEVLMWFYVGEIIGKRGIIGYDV

[12] = target: T12, HeLa cell extract proteins (Homo sapiens, UniProt P24539)
T12 construct: endogenous in cells; host or cells: HeLa cell extract
T12 sequence (P24539 43-256): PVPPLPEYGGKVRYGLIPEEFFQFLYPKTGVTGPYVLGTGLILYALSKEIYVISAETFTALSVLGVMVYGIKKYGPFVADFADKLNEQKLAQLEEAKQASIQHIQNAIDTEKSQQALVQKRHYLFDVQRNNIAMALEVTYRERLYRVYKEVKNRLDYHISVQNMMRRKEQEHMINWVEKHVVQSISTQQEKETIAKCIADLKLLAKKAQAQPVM

[13] = HeLa, protein ZC3H8 (ZINC FINGER CCCH DOMAIN-CONTAINING PROTEIN 8)
[14] = HeLa, protein EPRS (BI[…]-TRNA SYNTHETASE)

T7 sequence (Q96JN8 whole entry): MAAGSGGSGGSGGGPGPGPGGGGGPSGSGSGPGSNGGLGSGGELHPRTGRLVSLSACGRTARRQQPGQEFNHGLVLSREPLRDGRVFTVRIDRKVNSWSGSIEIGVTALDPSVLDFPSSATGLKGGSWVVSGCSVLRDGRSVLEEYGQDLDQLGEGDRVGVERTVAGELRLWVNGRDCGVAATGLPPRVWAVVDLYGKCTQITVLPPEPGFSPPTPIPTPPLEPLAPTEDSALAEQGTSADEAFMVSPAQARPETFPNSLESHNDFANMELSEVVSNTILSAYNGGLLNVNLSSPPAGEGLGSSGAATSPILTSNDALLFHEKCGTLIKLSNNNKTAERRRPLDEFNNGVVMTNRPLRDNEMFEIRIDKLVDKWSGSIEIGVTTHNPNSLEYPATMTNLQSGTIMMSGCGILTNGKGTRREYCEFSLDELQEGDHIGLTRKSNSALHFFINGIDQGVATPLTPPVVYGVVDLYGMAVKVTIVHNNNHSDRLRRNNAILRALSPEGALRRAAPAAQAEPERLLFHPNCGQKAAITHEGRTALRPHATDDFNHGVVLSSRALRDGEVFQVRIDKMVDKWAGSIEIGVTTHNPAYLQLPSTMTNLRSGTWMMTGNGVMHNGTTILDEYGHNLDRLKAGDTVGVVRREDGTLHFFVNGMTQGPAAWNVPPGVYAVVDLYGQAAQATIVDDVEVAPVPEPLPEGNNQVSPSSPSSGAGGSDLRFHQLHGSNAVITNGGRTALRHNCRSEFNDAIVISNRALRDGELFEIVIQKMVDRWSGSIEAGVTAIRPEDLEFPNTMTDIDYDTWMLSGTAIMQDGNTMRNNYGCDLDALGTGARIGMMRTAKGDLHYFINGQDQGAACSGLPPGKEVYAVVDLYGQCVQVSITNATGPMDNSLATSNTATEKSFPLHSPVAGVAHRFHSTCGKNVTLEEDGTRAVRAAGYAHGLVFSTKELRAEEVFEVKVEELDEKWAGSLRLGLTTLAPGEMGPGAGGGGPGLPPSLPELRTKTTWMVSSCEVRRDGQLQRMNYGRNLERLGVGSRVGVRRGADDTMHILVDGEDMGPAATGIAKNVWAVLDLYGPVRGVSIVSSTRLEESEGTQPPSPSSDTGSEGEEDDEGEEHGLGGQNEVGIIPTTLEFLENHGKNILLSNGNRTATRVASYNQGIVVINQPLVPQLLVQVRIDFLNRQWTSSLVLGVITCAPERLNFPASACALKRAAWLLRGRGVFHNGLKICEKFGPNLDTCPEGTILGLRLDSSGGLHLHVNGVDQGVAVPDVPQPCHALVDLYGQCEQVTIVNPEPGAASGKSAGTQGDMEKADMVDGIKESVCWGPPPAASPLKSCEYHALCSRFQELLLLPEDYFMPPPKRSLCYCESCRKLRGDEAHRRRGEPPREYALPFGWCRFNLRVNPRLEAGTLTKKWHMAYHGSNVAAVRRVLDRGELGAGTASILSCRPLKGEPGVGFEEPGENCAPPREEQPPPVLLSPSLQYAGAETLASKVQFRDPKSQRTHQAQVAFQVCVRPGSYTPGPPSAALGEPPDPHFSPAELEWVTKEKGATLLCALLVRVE
T10 sequence (P07814 whole entry): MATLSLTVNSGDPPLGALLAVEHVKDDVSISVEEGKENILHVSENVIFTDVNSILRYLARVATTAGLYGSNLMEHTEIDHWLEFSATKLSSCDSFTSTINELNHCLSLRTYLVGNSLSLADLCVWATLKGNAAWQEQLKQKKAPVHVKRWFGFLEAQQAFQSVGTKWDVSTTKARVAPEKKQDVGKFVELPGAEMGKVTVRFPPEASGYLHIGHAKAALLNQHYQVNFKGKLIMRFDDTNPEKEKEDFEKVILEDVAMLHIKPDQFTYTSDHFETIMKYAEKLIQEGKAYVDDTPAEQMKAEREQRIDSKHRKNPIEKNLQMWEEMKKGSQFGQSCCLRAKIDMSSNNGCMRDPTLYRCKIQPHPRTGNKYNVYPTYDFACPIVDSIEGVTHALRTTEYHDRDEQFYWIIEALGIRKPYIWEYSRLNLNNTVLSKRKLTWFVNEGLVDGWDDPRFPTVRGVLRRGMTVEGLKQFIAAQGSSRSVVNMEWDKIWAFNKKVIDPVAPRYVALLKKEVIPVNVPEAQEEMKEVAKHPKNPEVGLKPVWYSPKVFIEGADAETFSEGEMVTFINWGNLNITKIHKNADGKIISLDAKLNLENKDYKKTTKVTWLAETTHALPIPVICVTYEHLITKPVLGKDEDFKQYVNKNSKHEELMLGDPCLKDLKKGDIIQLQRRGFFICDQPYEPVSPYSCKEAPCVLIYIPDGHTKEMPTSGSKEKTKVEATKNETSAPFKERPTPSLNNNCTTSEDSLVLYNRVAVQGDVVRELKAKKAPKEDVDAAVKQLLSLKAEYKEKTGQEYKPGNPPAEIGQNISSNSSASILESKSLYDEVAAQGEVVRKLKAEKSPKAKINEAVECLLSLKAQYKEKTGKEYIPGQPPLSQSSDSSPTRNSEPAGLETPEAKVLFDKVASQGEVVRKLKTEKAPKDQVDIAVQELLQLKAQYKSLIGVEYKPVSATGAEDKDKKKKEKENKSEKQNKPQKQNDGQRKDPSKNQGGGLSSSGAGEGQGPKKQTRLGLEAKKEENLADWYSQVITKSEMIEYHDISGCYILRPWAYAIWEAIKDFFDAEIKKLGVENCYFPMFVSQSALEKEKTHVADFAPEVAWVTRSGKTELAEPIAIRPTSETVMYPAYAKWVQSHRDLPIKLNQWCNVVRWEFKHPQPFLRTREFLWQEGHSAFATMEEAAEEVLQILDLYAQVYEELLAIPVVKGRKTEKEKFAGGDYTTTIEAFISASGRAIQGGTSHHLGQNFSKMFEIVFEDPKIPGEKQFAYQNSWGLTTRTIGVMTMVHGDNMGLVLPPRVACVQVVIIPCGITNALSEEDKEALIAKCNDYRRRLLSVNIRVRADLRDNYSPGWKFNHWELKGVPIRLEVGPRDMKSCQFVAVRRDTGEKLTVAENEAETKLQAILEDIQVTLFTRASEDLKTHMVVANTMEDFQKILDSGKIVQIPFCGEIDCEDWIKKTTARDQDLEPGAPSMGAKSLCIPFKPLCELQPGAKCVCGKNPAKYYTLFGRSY
T9 sequence (P23526 whole entry): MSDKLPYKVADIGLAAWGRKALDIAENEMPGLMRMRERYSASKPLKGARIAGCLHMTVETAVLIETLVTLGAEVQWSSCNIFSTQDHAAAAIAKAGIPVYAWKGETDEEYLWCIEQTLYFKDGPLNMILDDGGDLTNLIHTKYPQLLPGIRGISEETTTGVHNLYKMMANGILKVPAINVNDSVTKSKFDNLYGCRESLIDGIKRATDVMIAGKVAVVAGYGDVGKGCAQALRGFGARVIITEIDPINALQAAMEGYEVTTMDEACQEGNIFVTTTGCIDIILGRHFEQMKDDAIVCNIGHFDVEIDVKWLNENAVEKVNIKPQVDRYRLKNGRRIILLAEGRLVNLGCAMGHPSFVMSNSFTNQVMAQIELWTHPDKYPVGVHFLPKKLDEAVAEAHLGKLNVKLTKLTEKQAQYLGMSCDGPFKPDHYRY
T4 sequence (P11413 whole entry): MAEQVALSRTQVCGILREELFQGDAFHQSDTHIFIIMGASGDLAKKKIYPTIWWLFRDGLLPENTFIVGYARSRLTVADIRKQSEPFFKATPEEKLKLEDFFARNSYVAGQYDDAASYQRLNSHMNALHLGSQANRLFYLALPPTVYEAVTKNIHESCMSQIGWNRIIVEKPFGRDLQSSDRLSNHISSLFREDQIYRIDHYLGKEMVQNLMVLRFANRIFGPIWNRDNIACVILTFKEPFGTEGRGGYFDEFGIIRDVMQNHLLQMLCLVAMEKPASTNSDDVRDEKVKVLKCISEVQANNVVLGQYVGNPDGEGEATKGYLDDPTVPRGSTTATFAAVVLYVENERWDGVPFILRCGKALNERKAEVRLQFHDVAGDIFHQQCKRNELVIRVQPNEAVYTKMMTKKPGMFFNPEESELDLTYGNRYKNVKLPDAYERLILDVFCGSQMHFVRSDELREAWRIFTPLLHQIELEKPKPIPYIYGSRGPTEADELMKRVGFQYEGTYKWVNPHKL

Row | Compound | fold changes relative to vehicle control ([1]; HeLa, protein SSBP1) | fold changes relative to vehicle control ([2]; HeLa, protein PLA2G4A) | fold changes relative to vehicle control ([3]; HeLa, captured protein QARS) | fold changes relative to vehicle control ([4]; HeLa, protein G6PD) | fold changes relative to vehicle control ([5]; HeLa, captured protein THADA) | fold changes relative to vehicle control [6, 13] | fold changes relative to vehicle control ([7]; HeLa, protein KIAA1787) | fold changes relative to vehicle control ([8]; protein FSCN1, HeLa) | fold changes relative to vehicle control ([9]; HeLa, protein AHCY) | fold changes relative to vehicle control [10, 14] | fold changes relative to vehicle control ([11]; HeLa, protein ATP5L) | fold changes relative to vehicle control ([12]; HeLa, captured protein ATP5F1) | fold changes relative to vehicle control ([2]; protein PLA2G4A, HeLa) | fold changes relative to vehicle control ([3]; HeLa, protein QARS) | fold changes relative to vehicle control ([4]; protein G6PD, HeLa) | fold changes relative to vehicle control ([5]; captured protein THADA, HeLa) | fold changes relative to vehicle control ([6]; protein ZC3H8, HeLa) | fold changes relative to vehicle control ([7]; protein KIAA1787, HeLa) | fold changes relative to vehicle control ([9]; protein AHCY, HeLa) | fold changes relative to vehicle control ([10]; protein EPRS, HeLa) | also measured
1 | Nc1nc2c(c(=O)[nH]1)N(C=O)C(CNc1ccc(C(=O)N[C@@H](CCC(=O)O)C(=O)O)cc1)CN2 (stereo partly drawn) [LEU, leucovorin] | 1.07 | 0.94 | 0.97 | 1.12 | 1.06 | 1.22 | 1.16 | 0.95 | 0.98 | 1.11 | 1.07 | 1.15 |  |  |  |  |  |  |  |  | 
2 | NCCCNc1ccc(C(=O)NC(CCC(=O)O)C(=O)O)cc1 (stereo not drawn) [compound 7] | 0.95 | 0.88 | 0.92 | 1.09 | 1.12 | 1 | 1.21 | 0.78 | 0.99 | 1.09 | 0.97 | 1.05 |  |  |  |  |  |  |  |  | 
3 | CCCCCCOc1cccc(Cc2cnc(N)nc2N)c1 [compound 2] | 0.95 |  |  |  |  |  |  | 1.96 |  |  |  |  | 1.72 | 1.16 | 1.89 | 1.16 | 0.96 | 0.98 | 1.26 | 1.25 | fold changes relative to vehicle control ([11]; protein ATP5L, HeLa): 0.95; fold changes relative to vehicle control ([12]; HeLa, protein ATP5F1): 0.85
4 | CCCCCCOc1ccc(Cc2cnc(N)nc2N)cc1 [compound 1] | 1.05 |  |  |  |  |  |  | 1.28 |  |  |  |  | 1 | 0.99 | 1.15 | 1.06 | 1.19 | 1.03 | 1.01 | 1.06 | fold changes relative to vehicle control ([11]; protein ATP5L, HeLa): 1.2; fold changes relative to vehicle control ([12]; HeLa, protein ATP5F1): 1.05
5 | Nc1nc2cccc(-c3ccccc3)c2n1Cc1ccc(Cl)c(Cl)c1 [compound 3] | 1 |  |  |  |  |  |  | 0.96 |  |  |  |  | 0.91 | 1.01 | 1.03 | 1.09 | 0.99 | 1.09 | 0.86 | 1.13 | fold changes relative to vehicle control ([11]; protein ATP5L, HeLa): 0.98; fold changes relative to vehicle control ([12]; HeLa, protein ATP5F1): 0.88
6 | NCCOCCOCC(=O)Nc1nc2ncc(CNc3ccc(C(=O)NC(CCC(=O)O)C(=O)O)cc3)nc2c(=O)[nH]1 (stereo not drawn) [compound 6] | 0.96 | 1.18 | 0.95 | 1.32 | 1.11 | 1.04 | 1.11 | 1.42 | 1.13 | 1.19 | 0.98 | 0.96 |  |  |  |  |  |  |  |  | 
7 | Nc1nc2[nH]cc(CCc3ccc(C(=O)N[C@@H](CCC(=O)O)C(=O)O)cc3)c2c(=O)[nH]1 [PTX, pemetrexed] |  |  |  |  |  |  |  |  |  |  |  |  |  |  |  |  |  |  |  |  | fold changes relative to vehicle control [1]: 1; fold changes relative to vehicle control [2]: 1.13; fold changes relative to vehicle control [3]: 0.9; fold changes relative to vehicle control [4]: 1.21; fold changes relative to vehicle control [5]: 0.98; fold changes relative to vehicle control [6]: 1.51; fold changes relative to vehicle control [7]: 1.07; fold changes relative to vehicle control [8]: 1.08; fold changes relative to vehicle control [9]: 0.98; fold changes relative to vehicle control [10]: 1.06; fold changes relative to vehicle control [11]: 1.32; fold changes relative to vehicle control [12]: 1.13
